Results taken from patent US20230181564A1, “Potent Tetrahydroquinolone Eliminates Apicomplexan Parasites” (The University of Chicago, priority 2020, published 2023).

How the values were obtained:
[1] = system: T. gondii mitochondrial membrane potential (cytochrome bc); assay: Mitochondrial membrane potential by the safranine method (T. gondii, compared with HFF); format: cell-based, Toxoplasma gondii; settings: permeabilized tachyzoites, safranin O
Experimental: T.gondii and HFF Mitochondrial Membrane Potential Measurements—the mitochondrial membrane potential was measured by the safranine method according to Vercesi et al, 1998). Freshly egressed T. gondii tachyzoites were filtered and washed twice with intracellular buffer (125 mM sucrose, 65 mM KCl, 10 mM HEPES-KOH buffer, pH 7.2, 1 mM MgCl2 and 2.5 mM potassium phosphate). After washing, the parasites were resuspended in the same buffer at 10^9/ml. An aliquot of 50 μL of this suspension was added to a cuvette containing Safranin 0, 2.5 μM and Succinate 1 mM in final volume of 2 mL of the intracellular buffer. The fluorescence was measured with a Hitachi 7000 spectrofluorometer with setting Ex. 495/Em. 586. Once the baseline fluorescence is testable, 30 μM digitonin was added to permeabilize the parasites. 85 seconds after permeabilization, the THQ derivatives, dissolved in DMSO, were added. 5 μM of FCCP (Carbonyl cyanide-4-(trifluoromethoxy) phenylhydrazone) was used as an uncoupler reference for calculations and its effect was considered 100%. Similar conditions for measuring the mitochondrial potential of mammalian cells were used with the following changes: the mammalian cells were re-suspended at 10^8/ml. 50 μl of mammalian cells was also used for each run in a cuvette with […]. The substrate used for mammalian cells was 5 mM glutamate and 5 mM malate. A higher concentration of digitonin (50 μM) was used to permeabilize the mammalian cells. The compounds were added at about 400 seconds after permeabilization. Each experiment was repeated at least three times in duplicates. Statistical analysis, unpaired student t test, was performed using GraphPad Prism 8.0 (GraphPad Software, Inc., San Diego, Calif.).
Mitochondrial membrane potential measurements were performed with permeabilized T.gondii tachyzoites in suspension using safranin O, which loads into polarized membranes. T. gondii tachyzoites were permeabilized with digitonin to allow the mitochondrial substrate succinate to cross the membrane and energize the mitochondrion. The fluorescence of safranin O, which loads into energized mitochondria was used to measure the membrane potential. The energized state of the mitochondrion is observed by a decrease in fluorescence (FIGS. 3A,C,E). Trifluoromethoxy carbonylcyanide phenylhydrazone (FCCP) was used to depolarize the membrane, which causes the fluorescence to go up as shown in FIG. 3A. JAG21 depolarized the membrane potential even at concentrations as low as 2 nM (FIG. 3C,D). JAG21 and Atovaquone had similar effects on the mitochondrial membrane potential (FIG. 3D). […] The effect of these THQ compounds against the T. gondii mitochondrial membrane potential was greater than the effect on the human foreskin fibroblast membrane potential (FIG. 3E,F). […]

[2] = molecular target: T1, P. falciparum bc1 complex cytochrome c reductase (Pfbc1) (Plasmodium falciparum, UniProt Q02768); assay: Pfbc1 native assay (cytochrome c reduction by parasite extract); format: biochemical; settings: atovaquone 1 μM positive control, mean±S.D., N=4
T1 construct: Parasite extract was then prepared by disruption with a sonicating probe; endogenous in cells; host or cells: P. falciparum 3D7 blood-stage parasites freed by saponin, sonicated extract
T1 sequence (Q02768 1-376): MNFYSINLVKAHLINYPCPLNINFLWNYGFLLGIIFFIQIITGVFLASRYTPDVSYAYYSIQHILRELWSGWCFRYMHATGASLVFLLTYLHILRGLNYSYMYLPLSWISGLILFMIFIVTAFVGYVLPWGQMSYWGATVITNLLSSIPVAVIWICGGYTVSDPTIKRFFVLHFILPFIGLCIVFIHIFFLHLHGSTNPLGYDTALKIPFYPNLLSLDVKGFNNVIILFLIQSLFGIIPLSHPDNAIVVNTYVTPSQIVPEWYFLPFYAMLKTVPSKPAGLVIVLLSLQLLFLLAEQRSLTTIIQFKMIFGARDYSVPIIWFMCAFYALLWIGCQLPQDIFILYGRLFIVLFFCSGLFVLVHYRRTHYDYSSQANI
Experimental: Enzyme assays. P. falciparum 3D7 strain were obtained from the Liverpool School of Tropical Medicine. Protease cocktail inhibitor was obtained from Roche. Bradford protein assay dye reagent was obtained from Bio-Rad. All other reagents were obtained from Sigma-Aldrich. Decylubiquinol was produced as per Fisher et al. (2009). In brief, 25 mg of decylubiquinone were dissolved in 400 μl of nitrogen-saturated hexane. An equal volume of aqueous 1 M sodium dithionite was added, and the mixture vortexed until colorless. […] Concentrations of decylubiquinol was determined spectrophotometrically on a Cary 300 Bio UV/visible spectrophotometer (Varian, UK) from absolute spectra, using ε288-320=8.1 mM-1·cm^−1. […]
The protocol for the preparation of parasite extract was adapted from Fisher et al. Free parasites were prepared from infected erythrocytes pooled from five T75 flasks, by adding 5 volumes of 0.15% (w/v) saponin in phosphate-buffered saline (137 mM NaCl, 2.7 mM KCl, 1.76 mM K2HPO4, 8.0 mM Na2HPO4, 5.5 mM D-glucose, pH 7.4) for 5 min, followed by three washes by centrifugation in RPMI containing HEPES (25 mM), and a final resuspension in potassium phosphate buffer (50 mM K2HPO4, 50 mM KH2PO4, 2 mM EDTA, pH7.4) containing a protease inhibitor cocktail (Complete Mini; Roche). […] The protein concentration of the parasite extract was determined by Bradford protein assay (Bio-Rad). […]

Cc1[nH]c2c(c(=O)c1-c1ccc(Oc3ccc(OC(F)(F)F)cc3)cc1)CCCC2 [JAG021, 2-methyl-3-(4-(4-(trifluoromethoxy)phenoxy)phenyl)-5,6,7,8-tetrahydroquinolin-4-one]
Concentration depolarizing the T. gondii mitochondrial membrane potential [1]: ≤ 2 nM | inhibition at 1 µM [2]: 86.4 ± 3.2%
